Measured values reported in patent publication US10716869B2, “Radiolabeled macrocyclic EGFR inhibitor” (Oncodesign SA, priority 2016, dated 2020).

Key:
[1] = test system: NCI-H1975 tumors; assay: tumor uptake in xenograft-bearing Nude rats; assay type: in vivo; conditions: NCI-H1975, at 180 min
Procedure: (§1) Dynamic PET scan imaging and ex vivo gamma counting were performed on three cancer xenografts (NCI-H441, NCI-H3255, NCI-H1975) in Nude rats. Xenografts were initiated in athymic, Hsd:RH-Foxnlrnu rats (Harlan, The Netherlands) by subcutaneous injection of 2×10^7 cells in 200 μL RPMI 1640 in the left and right flanks. NCI-H3255 tumor cells were injected in the right flank and NCI-H441 or NCI-H1975 in the left flank. Each study consisted in two experiments on 18 or 19 rats, for a total of 113 rats. Injection of NCI-H3255 cells was performed on DO, 24 to 72 hours after a whole-body irradiation with a […] (5 Gy, ^60Co, BioMep SARL, Bretenières, France). […] Tumors were grown until a target volume of 500-1500 mm^3 for both tumors was reached, whenever possible. All procedures using animals were approved by the Animal Care and Use Committee of Oncodesign (CNREEA agreement No 91).
(§2) The radiotracer solution was diluted in NaCl 0.9% to prepare a solution of activity 4-6 MBq (gamma-counting experiments) or 25-35 MBq (PET imaging experiments) in a volume of 300-400 or 600-800 μL, respectively. The radioactivity in the syringe was measured before and after tracer injection to determine the injected dose (ID) to animals. Rats were anesthetized with inhaled isoflurane (2% in air) for compound injection and throughout the course of image acquisition. After compound injection, rats were allowed to wake up and put back in their cage for an uptake period ranging from 20 to 120 minutes depending on the experiment.
(§3) For ex vivo gamma counting, after the determined uptake period or after imaging, rats were euthanized by decapitation, and the following organs were harvested and weighed: tumor, kidneys, blood, liver, heart, tail, thigh muscle, lungs, spleen and skin. Tracer distribution was assessed by determining ^18F content in each tissue with a gamma-well counter (PerkinElmer 2480 Wizard2 3). Counting data are reported as % ID per gram of tissue (% ID/g). Once radioactivity in organs was measured, some samples were prepared for immunohistochemistry.
(§4) For imaging experiments, rats were positioned prone in a dedicated rat imaging chamber (Minerve, France). Their body temperature was maintained by a flow of warm air through the structure of the imaging bed. PET imaging was performed on a microPET eXplore Vista CT (General Electric Healthcare) system. The Vista system, equipped with 36 dual-layer LYSO/GSO phoswich detector modules, has an effective axial/transaxial field of view of 4.8/6.7 cm. The spatial resolution is <2 mm in all directions and in the whole field of view. The sensitivity is above 2.5% in the whole field of view. After a scout image to adjust the position of the field of view, a CT scan was acquired (140 μA, 40 kV). […]

[2] = test system: NCI-H3255 tumors; assay: tumor uptake in xenograft-bearing Nude rats; assay type: in vivo
Procedure: as §1, §2, §3, §4

[3] = test system: NCI-H441 tumors; assay: tumor uptake in xenograft-bearing Nude rats; assay type: in vivo; conditions: NCI-H441, at 180 min
Procedure: as §1, §2, §3, §4

[4] = biodistribution by ex vivo γ-counting in Sprague Dawley rats
Procedure: To evaluate the biodistribution of the pure S (II) and R (III) enantiomers compared to compound (I), dynamic PET scan imaging and ex vivo gamma counting were performed on Sprague Dawley rats. Animals were injected with the radiotracer solution diluted in NaCl 0.9% to prepare a solution of activity 4-6 MBq (gamma-counting experiments) or 11-13 MBq (PET imaging experiments) in a volume of 300-400 or 600-800 μL, respectively. Radioactivity content in all biological samples was determined with scintillation γ-counter (Cobra 4180, Perkin-Elmer Inc.).
At the light of the biodistribution data of compound (I), the biodistribution of the R (III)- and S (II)-enantiomers was assessed by γ-counting in the organs in which the accumulation of compound (I) was prominent (that is: blood, heart, kidneys, liver, stomach, small intestine and colon). Two timepoints were selected: 5 and 30 minutes post-injection. […] The higher uptakes of R enantiomer (III) and S enantiomer (II) in these organs were expected to be observed at early timepoints after injection, giving the highest signals in the γ-counter and therefore making the comparison of biodistribution data more relevant. Besides, as PET images were acquired with compound (I), PET imaging was included in the evaluation of the biodistribution of R enantiomer and S enantiomer. This gave the opportunity to had one additional timepoint at 4 hours post-injection for collection of major organs and determination of radioactivity content by ex vivo γ-counting.

[5] = test system: human lung tumors (wild type EGFR, L858R mutated or exon 19 deleted EGFR); assay: autoradiography on human frozen tumor sections
Description: Three types of human lung tumors were included: tumors harboring wild type EGFR and tumors carrying L858R mutated or exon 19 deleted EGFR genes.

With `CC(C)C1NC(=O)Cc2ccc(Cl)cc2Nc2ncnc3cc(OCC[18F])c(cc23)OCCCNC1=O` (stereo not drawn) [Compound (I)] the “normalized uptake (tumor over muscle)” value [1] was 3.6, the “normalized uptake (tumor over muscle)” value ([2]; NCI-H3255, at 180 min) was 12 and the “uptake in NCI-H3255 tumors” value ([2]; stable between 90 min and 180 min) was “around 0.2 % ID/g”. For the same compound, the “normalized uptake (tumor over muscle)” value [3] was 2.6, the uptake in liver ([4]; 5 minutes post injection) was 1.66±0.43 % ID/g and the “uptake in small intestine” value ([4]; 5 minutes post injection) was 0.28±0.15 % ID/g. It also gave an uptake in blood ([4]; 5 minutes post-injection) of 0.13±0.02 % ID/g, an uptake in heart ([4]; 5 minutes post-injection) of 0.91±0.12 % ID/g and an uptake in kidneys ([4]; 5 minutes post-injection) of 5.07±0.30 % ID/g. For the same compound, the uptake in stomach ([4]; 5 minutes post-injection, unit printed as %) was 1.27±2.13%, the uptake in liver ([4]; 30 minutes post injection) was 0.37±0.07 % ID/g and the uptake in heart ([4]; 30 minutes post-injection) was 0.23±0.05 % ID/g. It also gave an uptake in kidneys ([4]; 30 minutes timepoint) of 1.47±0.36 % ID/g, an uptake in stomach ([4]; 30 minutes timepoint) of 2.72±4.75 % ID/g and an uptake in colon ([4]; four hours post-injection) of 10.55±4.53 % ID/g. For the same compound, the uptake in stomach ([4]; four hours post-injection) was 0.14±0.23 % ID/g, the “uptake in small intestine” value ([4]; thirty minutes post-injection) was 0.40±0.40 % ID/g and the “specific binding on frozen tumor sections” value [5] was “specific binding of Compound (I) was observed on all tumor types”.
